In brackets after ≈: the same amount, converted by molar mass. Activity calls are given as the source filed them. No cut-off for these calls is given here.
Tests used:
Cryptococcus neoformans = test: Antifungal activity against Cryptococcus neoformans H99 assessed as fungal growth inhibition incubated for 48 hrs by microplate reader assay; assay type: functional
Nakaseomyces glabratus [1] = test: Antifungal activity against fluconazole-resistant Candida glabrata 0161 assessed as inhibition of fungal biofilm formation at 32 ug/ml incubated for 24 hrs by XXT reduction menadione assay; assay type: functional
[2] = AUC (0-t) in ICR mouse at 10 mg/kg,po measured upto 24 hrs by LC-MS/MS analysis; assay type: ADME, organism-based; parameters: time < 24 hrs, dose 10 mg/kg, route po; conditions: in vivo
Trichophyton rubrum = test: Antifungal activity against Trichophyton rubrum assessed as fungal growth inhibition incubated for 48 hrs by microplate reader assay; assay type: functional
[3] = AUC (0-infinity) in ICR mouse at 10 mg/kg,po measured upto 24 hrs by LC-MS/MS analysis; assay type: ADME, organism-based; parameters: time < 24 hrs, dose 10 mg/kg, route po; conditions: in vivo
Nakaseomyces glabratus [4] = test: Antifungal activity against FLC-resistant Candida glabrata 0161 infected in cyclophosphamide immunosuppressed ICR mouse model assessed as pathological change in kidney at 5 mg/kg,ip administrated for 5 days by Hematoxylin and eosin staining based analysis; assay type: functional, organism-based; conditions: time 5.0 day
Nakaseomyces glabratus [5] = test: Synergistic antifungal activity against fluconazole-resistant Candida glabrata 0161 assessed as inhibition of fungal biofilm formation at 32 ug/ml incubated for 24 hrs in presence of fluconazole by XXT reduction menadione assay; assay type: functional
Nakaseomyces glabratus [6] = test: Antifungal activity against fluconazole-resistant Candida glabrata 8535 assessed as fungal growth inhibition incubated for 48 hrs by microplate reader assay; assay type: functional
Nakaseomyces glabratus [7] = test: Antifungal activity against fluconazole-resistant Candida glabrata 0161 assessed as increase in Nile red accumulation at 50 uM incubated for 30 mins by nile red staining based confocal microscopic analysis; assay type: functional, organism-based
[8] = Cmax in ICR mouse at 2 mg/kg,iv measured upto 24 hrs by LC-MS/MS analysis; assay type: ADME, organism-based; parameters: dose 2 mg/kg, time < 24 hrs, route iv; conditions: in vivo
[9] = Inhibition of fluorescent probe FITC tagged PDR1-KIX domain (unknown origin) protein-protein interaction assessed as inhibition constant incubated for 2 hrs by fluorescence polarization binding assay
[Candida] auris = Antifungal activity against Candida auris 15448 assessed as fungal growth inhibition incubated for 48 hrs by microplate reader assay; assay type: functional; conditions: Candidozyma auris
Candida tropicalis = test: Antifungal activity against Candida tropicalis 10186 assessed as fungal growth inhibition incubated for 48 hrs by microplate reader assay; assay type: functional
Nakaseomyces glabratus [10] = test: Synergistic antifungal activity against fluconazole-resistant Candida glabrata 0161 assessed as inhibition of fungal biofilm formation at 1 ug/ml incubated for 24 hrs in presence of fluconazole by XXT reduction menadione assay; assay type: functional
Nakaseomyces glabratus [11] = test: Synergistic antifungal activity against FLC-resistant Candida glabrata 0161 infected in cyclophosphamide immunosuppressed ICR mouse model assessed as reduction in kidney fungal infection at 5 mg/kg,ip administrated for 5 days in presence of fluconazole by Hematoxylin and eosin staining based analysis; assay type: functional, organism-based; conditions: time 5.0 day
Nakaseomyces glabratus [12] = test: Antifungal activity against FLC-resistant Candida glabrata 0161 infected in cyclophosphamide immunosuppressed ICR mouse model assessed as inhibition of fungal growth in kidney at ip administration for 5 days; assay type: functional, organism-based; conditions: time 5.0 day
Nakaseomyces glabratus [13] = test: Antifungal activity against fluconazole-resistant Candida glabrata 0161 assessed as fungal growth inhibition at 4 ug/ml incubated for 48 hrs by time-growth curve assay; assay type: functional, organism-based; conditions: dose 4.0 µg/ml
Nakaseomyces glabratus [14] = test: Antifungal activity against FLC-resistant Candida glabrata 0161 infected in cyclophosphamide immunosuppressed ICR mouse model assessed as inhibition of fungal growth in kidney at 5 mg/kg,ip administrated for 5 days; assay type: functional, organism-based; conditions: time 5.0 day
Nakaseomyces glabratus [15] = test: Antifungal activity against fluconazole-resistant Candida glabrata 0161 assessed as inhibition of fungal mature biofilm formation at 0.25 to 64 ug/ml incubated for 24 hrs by XXT reduction menadione assay; assay type: functional, organism-based; conditions: dose 0.25-64 µg/ml
[16] = Half life in ICR mouse at 10 mg/kg,po measured upto 24 hrs by LC-MS/MS analysis; assay type: ADME, organism-based; conditions: in vivo
[17] = Cytotoxicity against human HUVEC cells incubated for 48 hrs by CCK-8 assay; assay type: toxicity, cell-based
Nakaseomyces glabratus [18] = test: Synergistic antifungal activity against fluconazole-resistant Candida glabrata 0161 assessed as fractional inhibitory concentration index incubated for 48 hrs in presence of fluconazole by checkerboard microdilution method; assay type: functional
[19] = Aqueous solubility of compound; assay type: physicochemical
Candida albicans = test: Antifungal activity against Candida albicans assessed as fungal growth inhibition incubated for 48 hrs by microplate reader assay; assay type: functional
Nakaseomyces glabratus [20] = test: Antifungal activity against FLC-resistant Candida glabrata 0161 infected in cyclophosphamide immunosuppressed ICR mouse model assessed as inhibition of fungal growth in kidney at 40 mg/kg,ip administrated for 5 days; assay type: functional, organism-based; conditions: time 5.0 day
Nakaseomyces glabratus [21] = test: Synergistic antifungal activity against fluconazole-resistant Candida glabrata 0161 assessed as downregulation of PDR1 gene expression at 4 ug/ml in presence of fluconazole by RT-PCR analysis; assay type: functional, organism-based; conditions: dose 4.0 µg/ml
Nakaseomyces glabratus [22] = test: Antifungal activity against fluconazole-resistant Candida glabrata 0161 assessed as fungal growth inhibition incubated for 48 hrs by microplate reader assay; assay type: functional
Nakaseomyces glabratus [23] = test: Synergistic antifungal activity against fluconazole-resistant Candida glabrata 0161 assessed as downregulation of CDR2 gene expression at 4 ug/ml in presence of fluconazole by RT-PCR analysis; assay type: functional, organism-based; conditions: dose 4.0 µg/ml
[24] = Half life in ICR mouse at 2 mg/kg,iv measured upto 24 hrs by LC-MS/MS analysis; assay type: ADME, organism-based; conditions: in vivo
Nakaseomyces glabratus [25] = test: Antifungal activity against fluconazole-resistant Candida glabrata 0161 assessed as inhibition of fungal growth at 2 to 16 ug/ml incubated for 48 hrs by Spot plating assay; assay type: functional, organism-based; conditions: dose 2-16 µg/ml
Nakaseomyces glabratus [26] = test: Synergistic antifungal activity against fluconazole-resistant Candida glabrata 0161 assessed as inhibition of Rhodamine 6G efflux at 1 to 8 ug/ml incubated for 25 hrs in presence of fluconazole by Rhodamine 6G staining based fluorescence assay; assay type: functional, organism-based; conditions: dose 1-8 µg/ml
Candida parapsilosis = test: Antifungal activity against Candida parapsilosis 20090 assessed as fungal growth inhibition incubated for 48 hrs by microplate reader assay; assay type: functional; conditions: Lodderomyces parapsilosis
Nakaseomyces glabratus [27] = test: Synergistic antifungal activity against fluconazole-resistant Candida glabrata 0161 assessed as fungal growth inhibition incubated for 48 hrs in presence of fluconazole by time-growth curve assay; assay type: functional, organism-based
[28] = AUC (0-t) in ICR mouse at 2 mg/kg,iv measured upto 24 hrs by LC-MS/MS analysis; assay type: ADME, organism-based; parameters: time < 24 hrs, dose 2 mg/kg, route iv; conditions: in vivo
Nakaseomyces glabratus [29] = test: Synergistic antifungal activity against fluconazole-resistant Candida glabrata 0161 assessed as inhibition of fungal mature biofilm formation at 1 to 64 ug/ml incubated for 24 hrs in presence of fluconazole by XXT reduction menadione assay; assay type: functional, organism-based; conditions: dose 1-64 µg/ml
Nakaseomyces glabratus [30] = test: Synergistic antifungal activity against fluconazole-resistant Candida glabrata 0161 assessed as downregulation of ERG11 gene expression at 4 ug/ml in presence of fluconazole by RT-PCR analysis; assay type: functional, organism-based; conditions: dose 4.0 µg/ml
[31] = Oral bioavailability in ICR mouse at 10 mg/kg measured upto 24 hrs by LC-MS/MS analysis; assay type: ADME, organism-based; conditions: in vivo
Nakaseomyces glabratus [32] = test: Synergistic antifungal activity against FLC-resistant Candida glabrata 0161 infected in cyclophosphamide immunosuppressed ICR mouse model assessed as inhibition of fungal growth in kidney at 5 mg/kg,ip administrated in presence of fluconazole for 5 days; assay type: functional, organism-based; conditions: time 5.0 day
Nakaseomyces glabratus [33] = test: Synergistic antifungal activity against fluconazole-resistant Candida glabrata 0161 assessed as downregulation of CDR1 gene expression at 4 ug/ml in presence of fluconazole by RT-PCR analysis; assay type: functional, organism-based; conditions: dose 4.0 µg/ml

## Nc1cc(=O)n(C(=S)Nc2ccc3c(c2)CCC3)[nH]1
Cryptococcus neoformans
  MIC: 0.063 µg/mL (≈ 0.23 µM)
Nakaseomyces glabratus [1]
  inhibition at 32 µg/mL: 40%
[2]
  AUC(0-t) at 24 h: 389 ng·h/mL
Trichophyton rubrum
  MIC: 1 µg/mL (≈ 3.64 µM)
[3]
  AUC(0-inf): 390 ng·h/mL
Nakaseomyces glabratus [4]
  Activity: Active
Nakaseomyces glabratus [5]
  inhibition at 32 µg/mL: 73%
Nakaseomyces glabratus [6]
  MIC: 0.25 µg/mL (≈ 0.911 µM)
Nakaseomyces glabratus [7]
  Activity: Active
[8]
  Cmax: 1520 ng/mL
[9]
  Ki: 11.7 µM
[Candida] auris
  MIC: 2 µg/mL (≈ 7.29 µM)
Candida tropicalis
  MIC: 4 µg/mL (≈ 14.6 µM)
Nakaseomyces glabratus [10]
  inhibition at 1 µg/mL: 33%
Nakaseomyces glabratus [11]
  Activity: Active
Nakaseomyces glabratus [12]
  Activity: Dose-Dependent Effect
Nakaseomyces glabratus [13]
  Activity: Active
Nakaseomyces glabratus [14]
  Activity: Active
Nakaseomyces glabratus [15]
  inhibition: inactive
[16]
  half-life: 36 min
[17]
  IC50 at 48 h: > 83 µM
Nakaseomyces glabratus [18]
  fractional inhibitory concentration index (FICI): 0.28
[19]
  solubility: 22.1 µg/mL (≈ 80.4 µM)
Candida albicans
  MIC: 4 µg/mL (≈ 14.6 µM)
Nakaseomyces glabratus [20]
  Activity: Active
Nakaseomyces glabratus [21]
  Activity: Active
Nakaseomyces glabratus [22]
  MIC: 0.25 µg/mL (≈ 0.911 µM)
Nakaseomyces glabratus [23]
  Activity: Active
[24]
  half-life: 51.6 min
Nakaseomyces glabratus [25]
  Activity: Active
Nakaseomyces glabratus [26]
  Activity: Active
Candida parapsilosis
  MIC: 4 µg/mL (≈ 14.6 µM)
Nakaseomyces glabratus [27]
  Activity: Dose-Dependent Effect
[28]
  AUC(0-t) at 24 h: 489 ng·h/mL
Nakaseomyces glabratus [29]
  inhibition: Active
Nakaseomyces glabratus [30]
  Activity: Active
[31]
  bioavailability: 15.9%
Nakaseomyces glabratus [32]
  Activity: Active
Nakaseomyces glabratus [33]
  Activity: Active
